These results are taken from patent US9808434B2, “Compound for treating cancer and diabetes” (CITY OF HOPE, priority 2011, dated 2017).

In data set [1] the test system is B16-F0 mouse and A2058 human melanoma cells. Kind of data set: Cell cycle FACS analysis, melanoma. In kind it is cell-based. To be noted: 18 h. As to the method:
2×10^5 cells were treated with COH-SR4 (0 μM, 5 μM or 10 μM) for 18 h at 37° C. After treatment, floating and adherent cells were collected, washed with PBS, and fixed with 70% ethanol. On the day of flow analysis, cell suspensions were centrifuged; counted and same numbers of cells were resuspended in 500 μL PBS in flow cytometry tubes. Cells were then incubated with 2.5 μL of RNase (stock 20 mg/mL) at 37° C. for 30 min after which they were treated with 10 μL of propidium iodide (stock 1 mg/mL) solution and then incubated at room temperature for 30 min in the dark. The stained cells were analyzed using the Beckman Coulter Cytomics FC500, Flow Cytometry Analyzer. Results were processed using CXP2.2 analysis software from Beckman Coulter.

Data set [2] has as its system 3T3-L1 cells. Put plainly: Intracellular triglyceride contents, AdipoRed Assay. To be noted: 7 days in DM + compound. In kind it is cell-based, mouse. The method, then: Intracellular triglyceride contents were measured using AdipoRed Assay™ and the results were shown in relative fluorescence units (RFU) in FIG. 5.
3T3-L1 preadipocytes cells were treated with differentiating media (DM) with COH-SR4 (1 μM, 3 μM, or 5 μM) or without for 7 days. […] As used in FIG. 9C, U=undifferentiated, D=differentiated with cocktail media.

The subject of data set [3] is U251 glioma cells. Put plainly: Intracellular ROS (H2DCFDA+ cells), flow cytometry. The data set is classed as cell-based. The following applies: 2 or 10 μM, 24 hours. As to the method: Cells of U251 glioma cells or pNHA cell lines were treated with COH-SR4 at a concentration of 0 μM, 2 μM or 10 μM for 24 hours before intracellular ROS was assessed by flow cytometry (representative of 3 runs and samples in triplicate). ROS increased in the glioma cells treated with COH-SR4 as indicated by the increased amounts of H2DCFDA+ cells (FIG. 38).

Data set [4] deals with H1417. Put plainly: Colony formation assay, H1417. The data set is classed as cell-based, human. To be noted: 1.5 μM. As to the method:
(§1) Cell survival was evaluated using a standard colony-forming assay. In total, 1×10^5 cells/mL were incubated with COH-SR4 (1.5 μM or 5 μM) or elesclomol (5 μM) for 24 h, and aliquots of 50 or 100 μL were added to 60 mm size petri dishes, containing 4 mL culture medium. After 7 or 10 days, adherent colonies were fixed, stained with 0.5% methylene blue for 30 min and colonies were counted using the Innotech Alpha Imager HP (91).
(§2) The effect of COH-SR4 was first examined in a NCI panel of cancer cell lines, the results of which indicated good activity of COH-SR4 towards lung cancer (FIG. 78A). […] Values are presented as mean±SD from two separate determinations with eight replicates each (n=16) (FIG. 78B). The COH-SR4 treatment exerted a significant inhibitory effect on the survival of lung cancer cells [IC50: H1417 cells-1.2±0.2 μM, H1618 cells-1.5±0.2 μM, H358 cells-2.1±0.2 μM and H520 cells-2.4±0.3 μM]. […] Following initial screening for the anticancer activity of COH-SR4, the effect of COH-SR4 on clonogenic potential was studied. Standard colony-forming assay was performed and the colonies were counted using Innotech Alpha Imager HP. […] The effect of COH-SR4 on induction of apoptosis was further investigated. […] TUNEL assay was performed using Promega fluorescence detection kit and examined using Zeiss LSM 510 META laser-scanning fluorescence microscope with filters 520 and 620 nm. […]

Data set [5] concerns H358. Put plainly: Colony formation assay, H358. The following applies: 1.5 μM. The data set is classed as cell-based, human. The method, then: as §1, §2
The test system of data set [6] is A375. Kind of data set: Colony formation assay, A375. In kind it is cell-based, human. To be noted: 5 μM. As to the method:
as §1

Data set [7] deals with H358 and H520 cells. Put plainly: COH-SR4 cytotoxicity after siRNA knock-down of AMPK, XTT. The data set is classed as cell-based, human. As to the method: The effects of COH-SR4 on cell viability were assessed in quadruplicate samples using the 2,3-bis (2-methoxy-4-nitro-5-sulfophenly)-5-[(phenylamino) carbonyl]-2H-tetrazolium hydroxide (XTT) assay. Briefly, 20,000 cells were seeded and incubated in 96-well, flat-bottomed plates in 10% FBS-supplemented culture medium 24 h before drug treatment. After 24 h incubation at 37° C., cells were then exposed to the indicated concentrations of drug at 37° C. in 5% CO2 for 48 h. The medium was removed and replaced with 100 μL fresh medium containing 50 μL of the activated-XTT solution to each well, and the cells were further cultured in the CO2 incubator at 37° C. for 4 h. Absorbance was determined on a plate reader at 475 nm.
AMPK was knocked down by siRNA and assessed the impact on COH-SR4-induced cytotoxicity. […] Thus, the in-vitro analyses of critical signaling proteins of cell proliferation further supported the anti-cancer effects of COH-SR4 in lung cancer cells.

The subject of data set [8] is U251. Put plainly: Glioma ATP viability assay, U251. The data set is classed as cell-based. To be noted: Homo sapiens, U-251, 72 h. The method, then: Cells of each cell line (U251, U87, PBT-017, PBT018, PBT003 and PBT028) were treated with various concentrations (0˜100 μM) of COH-SR4 for 72 hours. Cell viabilities were determined by ATP viability assays. Data were represented as a ratio to vehicle (DMSO) control, and plotted as mean±SEM (n=12) obtained from 2˜3 experiments (FIG. 34A).
Cells of each cell line (U87, U251, PBT003 and PVT-017) were treated with various concentrations (0˜100 μM) of COH-SR4 for 72 hours. Cell viabilities were determined by ATP viability assays. Data were represented as a ratio to vehicle (DMSO) control, and plotted as mean±SEM (n=12) obtained from 2-3 experiments (FIG. 34B).
Cells of each cell line were treated with various concentrations (0˜100 μM) of COH-SR4 or various concentrations (0˜1000 μM) of TMZ for 72 hours. Cell viabilities were determined by ATP viability assays. Data were represented as a ratio to untreated cells as control, and plotted as mean±SEM (n=12) obtained from 2˜3 experiments (FIGS. 43A-B).

Data set [9] deals with melanoma cells. Kind of data set: MTT assay, melanoma cell lines of various mutational status. The data set is classed as cell-based. To be noted: 48 h, regardless of mutational status; read-out: IC50 values across melanoma cell lines. As to the method:
Cell density measurements were performed using a hemocytometer to count reproductive cells resistant to staining with trypan blue. Approximately 20,000 cells were plated into each well of 96-well flat-bottomed micro-titer plates. After 12 h or 24 h incubation at 37° C., medium containing either COH-SR4 (ranging 0-200 μM) or elesclomol (ranging 0-20 μM) were added to the cells. After 24 h, 48 h or 96 h incubation, 20 μL of 5 mg/mL MTT were introduced to each well and incubated for 2 h. The plates were centrifuged and medium was decanted. Cells were subsequently dissolved in 100 μl DMSO with gentle shaking for 2 h at room temperature, followed by measurement of OD570 (91).

Structures are written as SMILES. “Also recorded” adds a separate entry of the source.

With `O=C(Nc1cc(Cl)cc(Cl)c1)Nc1cc(Cl)cc(Cl)c1` [COH-SR4, 1,3-bis(3,5-dichlorophenyl) urea], the “cells accumulated in G2 phase (G2/M phase arrest)” value in data set [1] is approximately 50%. Further, the “intracellular triglyceride contents (AdipoRed Assay)” value in [2] was “decreased intracellular triglyceride contents; also recorded: dose-dependently reduced”. Besides, the “intracellular ROS (H2DCFDA+ cells)” value in data set [3] is recorded as “ROS increased”. Besides, the colony formation in data set [4] is 39±8%; in data set [5] it was 47±7%; in [6], 42±6%. In addition, the “cytotoxicity of COH-SR4 after knock-down of AMPK” value in data set [7] is recorded as “significant reversal in the cytotoxicity”. Further, the IC50 in [8] (Table 1) is 2100 nM; in [8] (Table 2), 2000 nM; in data set [9], 1200 to 4800 nM.
